# Measurements taken from US9795672B2, “Treatment with anti-VEGF antibodies” (Genentech, Inc., priority 2003, dated 2017).
# Marks after values point to notes of the source that are not given here.
# Legend:
# [1] = tested on: metastatic colorectal cancer; experiment: Phase II randomized trial, bevacizumab added to bolus 5-FU/LV, first-line, non-optimal candidates for irinotecan: efficacy and quality of life; assay type: in vivo, human
# Text: Patients with histologically confirmed, previously untreated, measurable metastatic colorectal cancer were eligible if, in the judgment of the investigator, they were not optimal candidates for first-line irinotecan-containing therapy and had at least one of the following characteristics: age above 65 years, ECOG PS of 1 or 2, serum albumin equal or less than 3.5 g/dL, or prior radiotherapy to abdomen or pelvis. […] All patients provided written informed consent for their participation.
# A dynamic randomization algorithm was utilized to achieve balance overall and within each of the following categories: study center, baseline ECOG performance status (0 vs. ≧1), site of primary disease (colon vs. rectum), and number of metastatic sites (1 vs. >1). The 5-FU/LV treatment, comprising LV 500 mg/m^2 over 2 hours and 5-FU 500 mg/m^2 as a bolus midway through the LV infusion (Roswell Park regimen; Petrelli et al. (1989) J. Clin. Oncol. 7:1419-1426), was administered weekly for the first 6 weeks of each 8-week cycle. Chemotherapy was continued until study completion (96 weeks) or disease progression. […] At the time of disease progression, patients were unblinded to their treatment assignment and could receive any second-line treatment at the discretion of the investigator. […] After completing the study, patients were followed for any subsequent treatment and survival every 4 months until death, loss to follow-up, or termination of the study.
# Patients underwent an assessment of tumor status at baseline and at completion of every 8-week cycle using appropriate radiographic techniques, typically spiral CT scanning. Tumor response, or progression, was determined by both the investigator and an independent radiology facility (IRF) utilizing the Response Evaluation Criteria in Solid Tumors. Therasse et al. (2000). The IRF assessment was performed without knowledge of the treatment assignment or investigator assessment. In addition, patients completed the Functional Assessment of Cancer Therapy—Colorectal (FACT-C), Version 4, a validated instrument for assessing quality of life (QOL) in colorectal cancer patients, at baseline and prior to each treatment cycle until disease progression. Ward et al. (1999) Qual. Life Res. 8:181-195.
# The primary outcome measure was duration of overall survival. Secondary outcome measures included progression-free survival, objective response rate (complete and partial), response duration, and change in the FACT-C QOL score. Survival duration was defined as the time from randomization to death. For patients alive at the time of analysis, duration of survival was censored at the date of last contact. Progression-free survival was defined as the time from randomization to the earlier of disease progression or death on study, defined as death from any cause within 30 days of the last dose of study drug or chemotherapy. For patients alive without disease progression at the time of analysis, progression-free survival was censored at their last tumor assessment, or day 1 (the first day of study treatment) if no postbaseline assessment was performed. In the analysis of objective response, patients without tumor assessments were categorized as nonresponders. Disease progression and response analyses were based on the IRF assessments. Change in quality of life was analyzed as time to deterioration in QOL (TDQ), defined as the length of time from randomization to a the earliest of a ≧3-point decrease from baseline in colon-cancer specific FACT-C subscale score (CCS), disease progression, or death on study. TDQ was also determined for the TOI-C (sum of CCS, physical and functional well-being) and total FACT-C for changes from baseline of 7 and 9 points, respectively.
# A two-tailed, log-rank test at the 0.05 level of significance with 80% power and two interim analyses were assumed in the calculations. Interim analyses were conducted by an unblinded, independent Data Monitoring Committee (DMC).
# [2] = tested on: metastatic colorectal cancer; experiment: Phase II randomized trial, bevacizumab added to bolus 5-FU/LV: safety; assay type: in vivo
# Experimental: Safety was assessed from reports of adverse events, laboratory test results, and vital sign measurements. Adverse events and abnormal laboratory results were categorized using the National Cancer Institute Common Toxicity Criteria (NCI-CTC), Version 2.
# A two-tailed, log-rank test at the 0.05 level of significance with 80% power and two interim analyses were assumed in the calculations. Interim analyses were conducted by an unblinded, independent Data Monitoring Committee (DMC). A safety interim analysis was conducted after 44 deaths and a second safety and efficacy interim analysis was conducted after 89 deaths. The interim efficacy analysis was governed by a formal group sequential stopping rule based on an O'Brien-Fleming spending function. Kaplan-Meier methodology was applied to estimate the median survival, progression free survival, and duration of response time for each treatment group. […] A two-sided stratified log rank test was used to compare the two groups. Stratified analyses included baseline ECOG performance status, site of primary disease, and the number of metastatic sites. Objective response rates were compared by the Chi-squared test. As exploratory analyses, the Cox proportional hazards model was used to estimate the effect of risk factors on modifications of treatment effect for duration of survival and progression-free survival. Efficacy analyses were performed on the intent-to-treat population, defined as all randomized patients. Safety analyses included all patients who received at least one dose of study drug.
# [3] = tested on: CRC; conditions: retrospective subset analysis; cited from earlier work
# [4] = tested on: metastatic colorectal cancer; experiment: Phase III randomized trial, bevacizumab added to bolus IFL, first-line: efficacy; assay type: in vivo, human; conditions: for Overall response rate: complete and partial responses, RECIST; for Median duration of response: in vivo; for Progression-free survival: median; for Median survival: overall survival, primary end point, bevacizumab 5 mg/kg every 2 wk or placebo with IFL
# Text: The trial enrolled over 900 patients with histologically confirmed, previously untreated, bi-dimensionally measurable metastatic colorectal cancer.
# Eligible patients had histologically confirmed metastatic colorectal carcinoma, with bidimensionally measurable disease. Other inclusion criteria included an age of at least 18 years, an Eastern Cooperative Oncology Group (ECOG) performance status of 0 or 1 (Oken et al. (1982) Am. J. Clin. Oncol. 5:649-55), a life expectancy of more than three months, and written informed consent. Adequate hematologic, hepatic, and renal function (including urinary excretion of no more than 500 mg of protein per day) was also required.
# Exclusion criteria included prior chemotherapy or biologic therapy for metastatic disease (adjuvant or radiosensitizing use of fluoropyrimidines with or without leucovorin or levamisole more than 12 months before study entry was permitted), receipt of radiotherapy within 14 days before the initiation of study treatment, major surgery within 28 days before the initiation of study treatment, clinically significant cardiovascular disease, clinically detectable ascites, pregnancy or lactation, regular use of aspirin (more than 325 mg per day) or other nonsteroidal […] agents, preexisting bleeding diatheses or coagulopathy or the need for full-dose anticoagulation, and known central nervous system metastases.
# Eligible patients were assigned to treatment with the use of a dynamic randomization algorithm that was designed to achieve overall balance between groups; randomization was stratified according to study center, baseline ECOG performance status (0 vs. 1), site of primary disease (colon vs. rectum), and number of metastatic sites (one vs. more than one).
# Tumor responses and progression were determined with the use of the Response Evaluation Criteria in Solid Tumors. Therasse et al. (2000) J. Natl. Cancer Inst. 92:205-16. […] No crossovers were allowed in the group given IFL plus placebo.
# Bevacizumab (or placebo) was administered concomitantly with chemotherapy. […] Standard intracycle and intercycle dose modifications of irinotecan and fluorouracil (according to the package insert)’ were permitted in patients with treatment-related adverse events. The doses of leucovorin and bevacizumab were not altered.
# After the baseline evaluation, tumor status was assessed every 6 weeks for the first 24 weeks of the study and then every 12 weeks for the remainder of therapy. All complete and partial responses required confirmation at least four weeks after they were first noted.
# The primary outcome measure was the duration of overall survival; survival was measured without regard to subsequent treatments. There was no crossover between groups, however. Survival analysis techniques such as the Kaplan-Meier method, log-rank test, and Cox proportional hazards model were used. Secondary outcome measures were progression-free survival, objective response rates (complete and partial responses), the duration of responses, and the quality of life.
# For patients who were alive at the time of analysis, data on survival were censored at the time of the last contact. […] For patients without disease progression at the time of the final analysis, data on progression-free survival were censored at the last assessment of tumor status or on day 0 if no further assessment was performed after baseline. Patients without adequate follow-up data were categorized as having no response.
# All calculations were performed with the log-rank test and involved two-sided P values, with an alpha value of 0.05, a statistical power of 80 percent, and one interim analysis of efficacy.
# (§1) Efficacy analyses were performed according to the intention-to-treat principle. Safety analyses included all patients who received at least one dose of study medication.
# [5] = tested on: metastatic colorectal cancer; conditions: patients who progressed following 5-FU therapy; cited from earlier work
# [6] = tested on: metastatic colorectal cancer; experiment: Phase III randomized trial, bevacizumab added to bolus IFL: safety (adverse events, NCI Common Toxicity Criteria v2); assay type: in vivo
# Experimental: Safety was assessed on the basis of reports of adverse events, laboratory-test results, and vital sign measurements. Adverse events were categorized according to the Common Toxicity Criteria of the National Cancer Institute, version 2, in which a grade of 1 indicates mild adverse events, a grade of 2 moderate adverse events, a grade of 3 […] adverse events, and a grade of 4 life-threatening adverse events.
# as §1
# [7] = addition of bevacizumab compared with 5-FU/LV alone
compound,measurement,setting,value
5-FU/LV/Bevacizumab: 5-fluorouracil and leucovorin (Roswell Park regimen) given with bevacizumab 5 mg/kg every 2 weeks,"Median time to deterioration in QOL (TDQ), CCS score",[1]; FACT-C colon-cancer specific subscale,3.1 months
same,Overall response rate,[1]; IRF assessment,26.0%
same,Duration of response,[1]; median,9.2 months
same,Progression-free survival,"[1]; median, IRF assessment",9.2 months
same,Median survival,"[1]; overall survival, primary endpoint, intent-to-treat, bevacizumab 5 mg/kg every 2 weeks or placebo with 5-FU/LV (Roswell Park)",16.6 months
same,Complete response,[1]; part of overall response rate,0%
same,Partial response,[1]; part of overall response rate,26.0%
same,"Median TDQ, TOI-C",[1]; secondary TDQ measure,3.2 months
same,"Median TDQ, total FACT-C",[1]; secondary TDQ measure,3.6 months
same,60-day all-cause mortality,[2]; in vivo,5.0%
same,"Arterial thrombotic events, number of patients",[2]; in vivo,10 patients
same,"Bowel perforation event, number of patients",[2]; in vivo,Two
same,Incidence of arterial thrombotic events,[2]; in vivo,10%
same,Proteinuria of any grade,[2]; in vivo,38%
same,Total grade 3 and 4 toxicities,[2]; safety population,87%
same,"Median survival, subset aged ≧65 years",[3],17.7 months
same,"Median survival, subset with baseline PS 1 or 2",[3],15.2 months
same,"Median survival, subset with serum albumin<3.5",[3],14.1 months
bevacizumab: recombinant humanized anti-VEGF monoclonal antibody generated according to Presta et al. (1997),Effect on quality of life,[1]; FACT-C,no detrimental effect
same,Prolongation of median survival,[1]; [7],3.7 months
same,Prolongation of progression-free survival,[1]; [7],3.7 months
same,Prolongation of response duration,[1]; [7],2.4 months
same,Increase in the median duration of survival attributable to bevacizumab,[4]; IFL plus bevacizumab vs IFL plus placebo,4.7 months
same,Overall response rate,[4],44.8%
same,Median duration of response,[4],10.4 mo
same,Progression-free survival,[4]; intention-to-treat,10.6 mo
same,Median survival,[4]; intention-to-treat,20.3 mo
CCc1c2c(nc3ccc(OC(=O)N4CCC(N5CCCCC5)CC4)cc13)-c1cc3c(c(=O)n1C2)COC(=O)[C@]3(O)CC [irinotecan],Prolongation of survival vs best supportive care,[5],2.8 month
same,Prolongation of survival vs infusional 5-FU,[5],2.2 month
"IFL plus Bevacizumab: regimen of irinotecan, fluorouracil and leucovorin (IFL) given with bevacizumab 5 mg/kg every 2 wk",Absolute improvement in the response rate,[4]; IFL plus bevacizumab vs IFL alone,10%
same,Reduction in the risk of death,[4]; bevacizumab group vs IFL plus placebo,34%
same,Overall response rate,[4],44.8%
same,Median duration of response,[4],10.4 mo
same,One-year survival rate,[4]; intention-to-treat,74.3%
same,Progression-free survival,[4]; intention-to-treat,10.6 mo
same,Median survival,[4]; intention-to-treat,20.3 mo
same,Complete response,[4]; part of overall response rate,3.7%
same,Partial response,[4]; part of overall response rate,41.0%
same,"Median duration of overall survival, subgroup with second-line oxaliplatin",[4]; patients who received second-line treatment with oxaliplatin,25.1 months
same,Adverse event leading to hospitalization,[6]; in vivo,44.9%
same,Any grade 3 or 4 adverse event,[6]; in vivo,84.9** percent
same,Any thrombotic event,[6]; in vivo,19.4%
same,Cases of grade 4 bleeding,[6]; in vivo,three
same,Deep thrombophletitis,[6]; in vivo,8.9%
same,Gastrointestinal perforation,[6]; in vivo,1.5%
same,"Gastrointestinal perforation, number of patients",[6]; in vivo,six
same,Grade 3 or 4 bleeding,[6]; in vivo,3.1%
same,Grade 3 or 4 leukopenia,[6]; in vivo,37.0%
same,"Hypertension, Any",[6]; in vivo,22.4** percent
same,Incidence of arterial thrombotic events,[6]; in vivo,3.3%
same,"Proteinuria, Any",[6]; in vivo,26.5%
same,"Proteinuria, Grade 2",[6]; in vivo,3.1%
same,"Proteinuria, Grade 3",[6]; in vivo,0.8%
same,Pulmonary embolus,[6]; in vivo,3.6%
same,Adverse event leading to death,[6]; incidence,2.6%
same,Death within 60 days,[6]; incidence,3.0%
